Laboratory results published in patent publication US11584744B2 (UNIVERSITY OF WASHINGTON, priority 2017, dated 2023).
≈ marks a conversion by molar mass, not a printed value. Read-outs that look alike come from different tables or passages of the source.

Legend:
[1] = Cytotoxicity testing on mammalian cells (AlamarBlue, 48 hours); type: cell-based; details: human
Procedure: Cytotoxicity testing on mammalian cells: Compounds were assayed for cytotoxicity against CRL-8155 (human lymphoblasts) and HepG2 cells (human hepatocellular carcinoma). Cells were exposed to serial dilutions of compounds for 48 hours and toxicity was quantified using AlamarBlue (ThermoFisher Scientific, Waltham, Mass.). Assays were performed in quadruplicate and EC50 values were calculated with non-linear regression methods using software by the Collaborative Drug Database (Burlingame, Calif. www.collaborativedrug.com)

[2] = biological target: recombinant S. aureus MetRS enzyme (Staphylococcus aureus, UniProt A0A0H2XID2); assay: Inhibition of SaMetRS, ATP depletion assay; type: biochemical
Chain of recombinant S. aureus MetRS enzyme (A0A0H2XID2 2-657): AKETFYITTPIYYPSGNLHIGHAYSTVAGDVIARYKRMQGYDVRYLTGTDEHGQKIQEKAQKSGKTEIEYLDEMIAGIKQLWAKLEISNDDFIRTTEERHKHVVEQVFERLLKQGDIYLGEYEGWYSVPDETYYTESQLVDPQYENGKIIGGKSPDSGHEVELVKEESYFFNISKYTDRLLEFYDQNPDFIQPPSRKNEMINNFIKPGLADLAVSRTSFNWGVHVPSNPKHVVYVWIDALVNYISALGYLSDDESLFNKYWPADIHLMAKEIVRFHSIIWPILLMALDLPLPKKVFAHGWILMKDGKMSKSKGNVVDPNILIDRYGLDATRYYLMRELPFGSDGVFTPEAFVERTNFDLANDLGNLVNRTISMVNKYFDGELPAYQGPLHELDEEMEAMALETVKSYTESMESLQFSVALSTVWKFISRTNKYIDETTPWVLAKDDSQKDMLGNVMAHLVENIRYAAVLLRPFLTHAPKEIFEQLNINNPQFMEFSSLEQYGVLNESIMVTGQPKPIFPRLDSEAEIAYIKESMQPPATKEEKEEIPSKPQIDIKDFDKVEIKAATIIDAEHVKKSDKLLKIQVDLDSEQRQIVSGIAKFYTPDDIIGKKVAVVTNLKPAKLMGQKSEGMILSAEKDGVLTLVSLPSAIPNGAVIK
Method in brief: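 N-terminal 6-His S. aureus MetRS (25 nM) was pre-incubated 15 min at room temperature with compound, 400 μg/mL E. coli tRNA and pyrophosphatase in HEPES-KOH pH 7.9, 2% DMSO. Reaction started with 150 nM ATP plus 20 μM L-methionine, ran 120 min; remaining ATP read by Kinase-Glo luminescence, IC50 by sigmoidal nonlinear regression.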

[3] = tested on: S. aureus MSSA (ATCC 29213); assay: MIC susceptibility testing; type: cell-based, Staphylococcus aureus; details: Staphylococcus aureus, 18 h; read-out: S. aureus MSSA (ATCC 29213) MIC
[4] = tested on: E. faecium VRE (ATCC 51559); assay: MIC susceptibility testing; type: cell-based, Enterococcus faecium; details: Enterococcus faecium
Method in brief: (§1)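 CLSI broth microdilution in triplicate, 5×10^5 CFU/mL final, ≤0.5% DMSO; MHB for S. aureus, CA-MHB for E. coli and E. faecium, CA-MHB plus 3% laked horse blood for S. pyogenes (5% CO2).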

E. faecium (ATCC 19434) = assay: MIC susceptibility testing; type: cell-based; details: Enterococcus faecium, ATCC19434; read-out: E. faecium (ATCC 19434) MIC
Text: (§2) Media and culture conditions. Mueller Hinton broth (MHB), cation adjusted Mueller Hinton broth (CA-MHB), and Brain Heart Infusion broth (BHI) were purchased from Becton Dickinson (Franklin Lakes, N.J.). Tryptic soy agar (TSA) plates, TSA with 5% sheep blood plates, and CA-MHB with 3% laked horse blood were purchased from Remel (San Diego, Calif.). MHB was used to assay all Staphylococcus aureus strains. CA-MHB was used for Staphylococcus epidermidis, Enterococcus faecalis, Enterococcus faecium, Escherichia coli, and Pseudomonas aeruginosa. CA-MHB supplemented with 3% laked horse blood was used for Streptococcus pneumoniae and Streptococcus pyogenes. Staphylococcus, Enterococcus, Escherichia, and Pseudomonas strains were cultured at 37° C. with ambient air. Streptococcus strains were cultured in 37° C. with 5% CO2. Separate conditions for radiolabeled precursor uptake assays are described below.
(§3) Susceptibility testing: Minimum inhibitory concentration (MIC) determinations were performed in triplicate in 96-well round bottom microtiter plates (Corning, Corning N.Y.) as described by the Clinical and Laboratory Standards Institute (CLSI). Serial two-fold dilutions of compounds were added to plates in 50 μL volumes. An additional 50 μL of media containing bacterial cells (1×10^6 CFUs/mL) was then added to each well. Maximum DMSO concentrations were 0.5%. Plates were incubated at 37° C. for at least 18 h before reading the susceptibility result by optical absorbance (OD600) using a BioTek ELx800. The lowest concentration causing ≥90% growth inhibition compared to the untreated control was recorded as the MIC (and also corresponded to the visual MIC). MICs were measured at least twice and the higher value (if different) was recorded herein.

E. faecalis (ATCC 29212) = assay: MIC susceptibility testing; type: cell-based; details: Enterococcus faecalis, ATCC29212; read-out: E. faecalis (ATCC 29212) MIC
Text: as §2, §3

[5] = tested on: S. aureus MRSA (ATCC 43300); assay: MIC susceptibility testing; type: cell-based; details: Staphylococcus aureus; read-out: S. aureus MRSA (ATCC 43300) MIC
Text: as §2, §3

[6] = Liver microsome stability; type: in vitro ADME
Procedure: Microsome stability. Liver microsome stability assays were done by contract research laboratory, Wuxi AppTec Co. (Hubei, China). Briefly, compounds at 1 μM concentration were incubated in singlet with human or CD-1 mouse liver microsomes for 6 time points (0, 5, 10, 20, 30, and 60 min). Loss of parent compound was quantified by liquid chromatography/tandem mass spectrometry.

T. cruzi = T. cruzi growth inhibition; type: cell-based, Trypanosoma cruzi; details: read-out: (E) T. cruzi EC50
[7] = Protein binding assays, equilibrium dialysis; type: in vitro ADME, mouse; details: 1 μM, equilibrium dialysis 22 hours
Procedure: Protein binding assays: Compound binding to mouse plasma proteins was determined using 96-well equilibrium dialyzer plates (SDIS 9610EN, Nest Group, Inc.). Mouse plasma ([…]-SW-F, BioreclamationIVT, Westbury, N.Y.) containing compound (final concentration 1 μM) was added to a donor chamber as a 150 μL volume. The buffer solution (0.2 mM phosphate buffer, 150 μL) was added to the reciprocal acceptor chamber. Each compound was tested in triplicate. To prepare calibration solution for compound quantifications, blank wells were prepared containing only mouse plasma in a donor well and buffer solution in its acceptor well. The equilibrium dialysis was carried out by rocking the plate for 22 hours in 37° C. Once equilibrium was reached, the plasma and buffer solution from both wells were carefully removed for further analysis with liquid chromatography-tandem mass spectrometry. Plasma solution and internal standard were mixed in the presence of 80% acetonitrile. After centrifuging the solution, the supernatant was transferred to an insert. Similarly, the buffer solution from the acceptor side was prepared containing 40% acetonitrile. Calibration standards for donor and acceptor sides were prepared with compound concentrations of 50 nM, 100 nM, 250 nM, 500 nM, and 1 μM. The compound concentrations from each well were calculated from the calibration curves using Microsoft Excel. The percentage of the test compound bound was determined as follows: % Free=(Concentration buffer chamber/Concentration plasma chamber)×100% % Bound=100%−% Free

[8] = tested on: S. aureus MRSA (ATCC 33591); assay: MIC susceptibility testing; type: cell-based, Staphylococcus aureus; details: Staphylococcus aureus, MRSA ATCC33591; read-out: (G) MRSA (ATCC33591) MIC
Method in brief: as §1

S. aureus = assay: Serum shift assays (MIC with and without 50% human serum); type: cell-based, Staphylococcus aureus; details: Staphylococcus aureus
Procedure: Serum shift assays: To assess the role of protein binding on compound susceptibility, MIC determinations were performed in triplicate in the presence and absence of 50% human serum. Serial threefold dilutions of 2× compound were generated in MHB and aliquoted onto 96 well plates with a DMSO limit of 0.5%. Bacteria were adjusted to 1*10^8 CFUs/mL in MHB, then further diluted 1:100 in MHB and 100% heat deactivated filter sterilized pooled human serum. Fifty microliters were added to each well of the corresponding plates, and the plates were incubated at 37° C. for ˜20 h. The lowest concentration causing ≥90% growth inhibition was recorded as the MIC.

MetRS (T. brucei) = biological target: T1, MetRS (T. brucei) (Trypanosoma brucei brucei, UniProt Q38C91); assay: MetRS (T. brucei) enzyme inhibition; type: biochemical
T1 sequence (Q38C91 1-773): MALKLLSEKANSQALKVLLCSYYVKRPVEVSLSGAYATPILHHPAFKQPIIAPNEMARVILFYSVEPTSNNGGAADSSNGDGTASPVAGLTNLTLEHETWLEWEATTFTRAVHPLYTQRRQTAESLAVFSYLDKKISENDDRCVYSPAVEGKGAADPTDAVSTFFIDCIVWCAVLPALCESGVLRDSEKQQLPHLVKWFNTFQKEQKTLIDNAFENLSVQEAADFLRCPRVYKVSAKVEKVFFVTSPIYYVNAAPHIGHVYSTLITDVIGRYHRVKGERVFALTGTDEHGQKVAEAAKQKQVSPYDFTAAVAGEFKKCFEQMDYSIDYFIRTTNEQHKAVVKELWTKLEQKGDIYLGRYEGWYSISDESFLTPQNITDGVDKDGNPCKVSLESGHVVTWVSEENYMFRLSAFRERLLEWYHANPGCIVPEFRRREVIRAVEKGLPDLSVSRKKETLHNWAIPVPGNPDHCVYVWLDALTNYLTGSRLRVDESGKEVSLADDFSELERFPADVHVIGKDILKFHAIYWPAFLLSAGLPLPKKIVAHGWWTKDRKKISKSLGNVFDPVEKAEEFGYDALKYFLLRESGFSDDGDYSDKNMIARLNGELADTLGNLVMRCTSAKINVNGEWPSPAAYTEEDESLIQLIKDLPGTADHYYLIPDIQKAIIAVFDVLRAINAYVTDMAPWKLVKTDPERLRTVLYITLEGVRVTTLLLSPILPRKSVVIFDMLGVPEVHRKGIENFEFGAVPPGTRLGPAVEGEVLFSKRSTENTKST

MetRS (C. parvum) = MetRS (C. parvum) (Cryptosporidium parvum, UniProt Q5CVN0); assay: MetRS (C. parvum) enzyme inhibition; type: biochemical; details: read-out: (C) MetRS (C. parvum) IC50
Chain of MetRS (C. parvum) (Q5CVN0 entry or part of it): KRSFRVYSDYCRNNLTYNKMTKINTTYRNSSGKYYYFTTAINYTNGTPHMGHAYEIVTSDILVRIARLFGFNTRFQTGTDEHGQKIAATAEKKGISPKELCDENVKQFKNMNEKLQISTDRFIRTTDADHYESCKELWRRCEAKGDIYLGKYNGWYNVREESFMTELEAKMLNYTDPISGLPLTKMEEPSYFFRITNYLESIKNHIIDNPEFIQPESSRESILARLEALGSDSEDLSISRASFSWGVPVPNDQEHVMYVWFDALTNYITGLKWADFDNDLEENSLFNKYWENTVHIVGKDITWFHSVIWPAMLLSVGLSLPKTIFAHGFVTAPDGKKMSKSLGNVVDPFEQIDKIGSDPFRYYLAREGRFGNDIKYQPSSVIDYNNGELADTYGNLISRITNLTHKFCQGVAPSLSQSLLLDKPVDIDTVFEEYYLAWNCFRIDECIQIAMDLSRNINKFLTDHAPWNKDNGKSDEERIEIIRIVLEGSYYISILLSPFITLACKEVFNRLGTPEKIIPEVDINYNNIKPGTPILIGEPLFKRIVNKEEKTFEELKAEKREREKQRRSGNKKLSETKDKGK

[9] = CRL-8155 cells (human lymphoblasts), read-out: Mamm. cells (CRL8155) CC50
[10] = HepG2 cells (human hepatocellular carcinoma), read-out: Mamm. cells (HepG2) CC50
[11] = recombinant enzyme, lower limit of detection 0.025 μM, read-out: MetRS S. aureus (enzyme) IC50
[12] = read-out: E. faecium VRE (ATCC 51559) MIC

Structure (SMILES)	CC50 at 48 h [1, 9] [µg/mL]	CC50 at 48 h [1, 10] [µg/mL]	IC50 [2, 11] [nM]	MIC [3] [µg/mL]	MIC [4, 12] [µg/mL]	MIC (E. faecium (ATCC 19434)) [µg/mL]	MIC (E. faecalis (ATCC 29212)) [µg/mL]	MIC [5] [µg/mL]	half-life at 1 μM ([6]; human, human liver microsomes, read-out: Microsome stability: Human T½) [min]	half-life at 1 μM ([6]; mouse liver microsomes, CD-1 mouse, read-out: Microsome stability: Mouse T½) [min]	EC50 (T. cruzi; Trypanosoma cruzi) [nM]	EC50 (T. cruzi) [nM]	% binding to mouse plasma [7] [%]	IC50 ([2]; read-out: (B) MetRS (S. aureus) IC50) [nM]	MIC [8] [µg/mL]	MIC (S. aureus; 50% human serum, read-out: Avg MIC ± SEM (+50% serum)) [µg/mL]	MIC (S. aureus; no serum, read-out: Avg MIC ± SEM (no serum)) [µg/mL]	MIC ([4]; E. faecium ATCC 51559, read-out: (I) E. faecium (ATCC 51559) MIC) [µg/mL]	IC50 (MetRS (T. brucei)) [nM]	IC50 (MetRS (C. parvum)) [nM]
Oc1cc(NCCCNCc2cc(Cl)cc(Cl)c2)nc2ccccc12 [Compound 1312, 2-((3-((3,5-dichlorobenzyl)amino)propyl)amino)quinolin-4(1H)-one]	> 7.5	> 7.5	< 25	2.5 (≈ 6.64 µM)	0.156 (≈ 0.415 µM)	0.156 (≈ 0.415 µM)	0.313 (≈ 0.832 µM)	5 (≈ 13.3 µM)	–	–	–	–	–	–	–	–	–	–	–	–
O=c1[nH]c(Cc2ccc(Cl)cc2Cl)cn1Cc1nc2ccc(F)nc2[nH]1 [Compound 1962, 4-(2,4-dichlorobenzyl)-1-((5-fluoro-3H-imidazo[4,5-b]pyridin-2-yl)methyl)-1,3-dihydro-2H-imidazol-2-one, reference compound]	> 19.6	> 19.6	< 25	2.5 (≈ 6.37 µM)	1.25 (≈ 3.19 µM)	1.25 (≈ 3.19 µM)	5 (≈ 12.7 µM)	5 (≈ 12.7 µM)	25.9	27	–	–	–	–	–	–	–	–	–	–
CCCn1c(Cc2ccc(Cl)cc2Cl)cn(Cc2nc3nc(F)ccc3[nH]2)c1=O [Compound 2069, 4-[(2,4-dichlorophenyl)methyl]-1-({5-fluoro-1H-imidazo[4,5-b]pyridin-2-yl}methyl)-3-propyl-2,3-dihydro-1H-imidazol-2-one]	–	–	–	–	–	–	–	–	–	–	91.3	176	99.6	< 25	0.445 (≈ 1.02 µM)	18.3 ± 2.2	0.036 ± 0.03	> 2	< 40	< 40
